The values that follow come from patent publication US12053507B2, “Combination therapies for inhibiting sprout angiogenesis in the treatment of cancers” ([…] OF PHARMACY, LLC, priority 2010, dated 2024).

“Also recorded” adds a separate entry of the source.

Assay [1] concerns human dermal microvascular endothelial cells (HDMEC). The assay can be described thus: microcarrier in vitro 3D sprout angiogenesis assay of HDMEC in fibrin gel. Format: cell-based. On the procedure: Human dermal microvascular endothelial cells (HDMEC) were isolated from human neonatal foreskins. Briefly, after initial harvest from minced trypsinized human foreskins, microvascular endothelial cells were further purified on a PERCOLL® density gradient. […] HDMEC were cultured on collagen type 1 coated tissue culture flasks in EGM (endothelial cell growth medium) consisting of EBM supplemented with 10 ng/ml epidermal growth factor, 0.4% bovine brain extract, 17.5 microg/ml dibutyryl cyclic AMP, and 1 microg/ml hydrocortisone in the presence of 30% normal human serum. […] All experiments were done with HDMEC below passage 10. Bovine aortic endothelial cells (BAEC) were obtained from BioWhittaker, Inc. (Walkersville, MD) and cultured according to manufacturer's instruction. BAEC between passage 4 and 8 were used for experiments.
Gelatin-coated CYTODEX®-3 microcarrier beads were prepared as described by the manufacturer. Approximately 80,000 sterile microcarrier beads were washed, resuspended in EGM, and added to approximately 4.5 million endothelial cells (HDMEC or BAEC). The beads and cells were mixed by gentle swirling, incubated at 37° C. for 6 hr, and then rotated for 24-36 hr on an orbital mixer in a 37° C. oven to generate endothelial cell-loaded microcarrier beads (EC-beads).
FIGS. 1A-1C illustrate a study of human microvascular endothelial cell angiogenesis, according to some embodiments. A microcarrier, in vitro angiogenesis assay, previously designed to investigate bovine pulmonary artery endothelial cell angiogenic behavior in bovine fibrin gels, was modified for the study of human microvascular endothelial cell angiogenesis. The HDMEC were isolated from human neonatal foreskins and used, as described above, and images were captured at various magnifications, where the effect of angiogenic factors on sprout angiogenesis was quantified visually by counting the number and percent of EC-beads with capillary sprouts.
An isotonic 1.5 mg/ml collagen solution was prepared by mixing sterile native bovine type I &III collagen (VITROGEN®, Collagen Biomaterials, Palo Alto, CA) in 5XM199 medium and distilled water. The pH was adjusted to 7.4 using 1N NaOH.
For experiments using RGD peptides, EC-beads were firstly incubated with vary concentrations of peptides for one hour and then were added to the ECM solutions. About 500 EC-beads were then added to the ECM protein solutions, followed by the addition of 0.5 U/ml human thrombin. A 0.3 ml aliquot of each suspension was immediately added to appropriate wells of a 24-well tissue culture plate. After gelation, 1 ml of fresh assay medium (EBM supplemented with 20% normal human serum for HDMEC or EBM supplemented with 10% fetal bovine serum for BAEC) was added to each well.
FIGS. 1B and 1C show how the angiogenic response was monitored visually and recorded by video image capture. Specifically, capillary sprout formation was observed and recorded with a NIKON® Diaphot-TMD inverted microscope (Nikon Inc., Melville, NY), equipped with an incubator housing with a NIKON® NP-2 thermostat and Sheldon #2004 carbon dioxide flow mixer. […] The effect of angiogenic factors on sprout angiogenesis was quantified visually by determining the number and percent of EC-beads with capillary sprouts. 100-200 beads (five random low power fields) in each of triplicate wells were counted for each experimental condition. […]

In the next assay the target is αvβ3 integrin (Homo sapiens, UniProt P05106+P06756). The following applies: cited from earlier work.
αvβ3 integrin, sequence (P06756 31-889 limits assumed): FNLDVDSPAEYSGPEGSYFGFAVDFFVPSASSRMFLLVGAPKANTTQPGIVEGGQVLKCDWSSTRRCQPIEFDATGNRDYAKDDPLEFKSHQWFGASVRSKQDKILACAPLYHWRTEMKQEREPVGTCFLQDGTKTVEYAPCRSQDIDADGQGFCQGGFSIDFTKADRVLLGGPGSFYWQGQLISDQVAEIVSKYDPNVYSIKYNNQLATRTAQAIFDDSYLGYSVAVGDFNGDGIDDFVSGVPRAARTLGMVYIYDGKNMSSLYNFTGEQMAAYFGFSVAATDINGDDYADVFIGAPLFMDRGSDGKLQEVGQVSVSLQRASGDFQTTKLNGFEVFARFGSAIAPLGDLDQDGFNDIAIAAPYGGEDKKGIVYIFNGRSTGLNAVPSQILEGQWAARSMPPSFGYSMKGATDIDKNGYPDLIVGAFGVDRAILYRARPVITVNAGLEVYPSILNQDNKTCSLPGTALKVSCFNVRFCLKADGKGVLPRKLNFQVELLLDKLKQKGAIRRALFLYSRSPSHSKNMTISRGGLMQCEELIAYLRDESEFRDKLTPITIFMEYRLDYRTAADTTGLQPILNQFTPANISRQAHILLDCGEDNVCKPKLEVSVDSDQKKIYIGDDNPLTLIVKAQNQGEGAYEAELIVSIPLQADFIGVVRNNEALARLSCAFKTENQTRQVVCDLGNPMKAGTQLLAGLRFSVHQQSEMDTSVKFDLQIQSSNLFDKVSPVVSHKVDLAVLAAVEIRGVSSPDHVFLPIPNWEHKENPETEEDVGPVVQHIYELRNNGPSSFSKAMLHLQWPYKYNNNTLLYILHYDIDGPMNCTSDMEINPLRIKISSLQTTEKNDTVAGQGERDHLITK
αvβ3 integrin, sequence (P06756 891-1048 partner limits assumed): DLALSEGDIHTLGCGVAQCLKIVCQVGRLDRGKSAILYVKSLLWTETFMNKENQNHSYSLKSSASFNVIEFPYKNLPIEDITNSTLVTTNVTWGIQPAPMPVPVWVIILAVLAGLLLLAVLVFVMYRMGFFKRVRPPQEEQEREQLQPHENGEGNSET
αvβ3 integrin, sequence (P05106 27-788): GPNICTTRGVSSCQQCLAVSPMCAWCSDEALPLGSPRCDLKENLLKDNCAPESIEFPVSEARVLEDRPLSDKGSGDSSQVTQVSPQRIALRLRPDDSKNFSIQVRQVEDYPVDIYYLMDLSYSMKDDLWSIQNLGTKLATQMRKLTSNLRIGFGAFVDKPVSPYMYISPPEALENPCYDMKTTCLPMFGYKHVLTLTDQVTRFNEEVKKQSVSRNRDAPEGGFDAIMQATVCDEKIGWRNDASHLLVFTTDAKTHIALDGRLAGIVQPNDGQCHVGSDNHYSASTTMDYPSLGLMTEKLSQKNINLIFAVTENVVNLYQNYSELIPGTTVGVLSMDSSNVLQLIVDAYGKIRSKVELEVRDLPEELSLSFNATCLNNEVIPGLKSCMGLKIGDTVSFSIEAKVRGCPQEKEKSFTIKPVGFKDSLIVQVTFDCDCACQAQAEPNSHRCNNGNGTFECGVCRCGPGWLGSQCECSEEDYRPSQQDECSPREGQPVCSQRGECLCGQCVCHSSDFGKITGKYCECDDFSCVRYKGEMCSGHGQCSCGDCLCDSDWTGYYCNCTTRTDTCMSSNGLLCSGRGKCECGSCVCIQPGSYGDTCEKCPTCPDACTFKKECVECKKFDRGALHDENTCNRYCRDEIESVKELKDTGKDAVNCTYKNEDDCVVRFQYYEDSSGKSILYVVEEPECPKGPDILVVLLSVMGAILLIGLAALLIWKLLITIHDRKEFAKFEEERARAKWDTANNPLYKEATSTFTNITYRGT
For a further assay, the system named is VEGF. To be noted: colorectal cancer; in combination with standard Saltz regime of irinotecan, 5-fluorouracil, and leucovorin; cited from earlier work.
VEGF, sequence (P15692 207-311 limits assumed): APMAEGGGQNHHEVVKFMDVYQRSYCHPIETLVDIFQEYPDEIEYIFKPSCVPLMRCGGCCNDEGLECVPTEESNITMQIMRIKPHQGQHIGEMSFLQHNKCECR
The mark [2] stands for this setting: single agent, HDMEC in 3D fibrin matrix, stimulated with VEGF and bFGF.

Consider “echistatin (QCESGPCCRNCKFLKEGTICKRARGDDMDDYCNGKTCDCPRNPHKGPAT; listed as Echis carinatus)”, for which the “inhibition of sprout angiogenesis” value in assay [1] (echistatin alone at 0.1 μg/ml, HDMEC in fibrin) is “little inhibitory effect”; in assay [1] (echistatin alone, 1 μg/ml to 10 μg/ml, HDMEC in fibrin) it was “dose dependently”; in assay [1] (setting [2]) it was “inhibition of sprout angiogenesis; also recorded: dose dependently inhibited sprout angiogenesis”; in assay [1] (single agent, HDMEC in 3D fibrin matrix, stimulated with VEGF and bFGF, listed as Echistatin), “dose dependently inhibits sprout angiogenesis”. Besides, the αvβ3 integrin antagonism entry with αvβ3 integrin is reported as “potent irreversible αvβ3 integrin antagonist”.

With “cyclo (Arg-Gly-Asp-d-Phe-Cys) [cRGDfC, reference compound]”, the “inhibition of sprout angiogenesis” value in assay [1] (setting [2]) is “dose dependently inhibited sprout angiogenesis”.

For “AVASTATIN® (bevacizumab): human monoclonal antibody to VEGF”, the “increase of survival time” value with VEGF is given as “more than 30%”.
